Values quoted from earlier work as cited in publication PMC11966747, “Next Generation Risk Assessment of Acute Neurotoxicity from Organophosphate Exposures Using the In Vitro–In Silico Derived Dietary Comparator Ratio” (Environmental Science & Technology, 2025).
Where two headings read alike, the source gives them in different places.

Molecular target: erythrocyte AChE (Homo sapiens, UniProt P22303)
Details: cited from earlier work; for reported or expected adverse health outcome: human, ref Table S2
[1] = 1714 mg/kg BW (120 g) acute oral, 13 males and 2 females, ref Moon et al. 2015

erythrocyte AChE, sequence (P22303 32-617 isoform P22303-2 limits assumed): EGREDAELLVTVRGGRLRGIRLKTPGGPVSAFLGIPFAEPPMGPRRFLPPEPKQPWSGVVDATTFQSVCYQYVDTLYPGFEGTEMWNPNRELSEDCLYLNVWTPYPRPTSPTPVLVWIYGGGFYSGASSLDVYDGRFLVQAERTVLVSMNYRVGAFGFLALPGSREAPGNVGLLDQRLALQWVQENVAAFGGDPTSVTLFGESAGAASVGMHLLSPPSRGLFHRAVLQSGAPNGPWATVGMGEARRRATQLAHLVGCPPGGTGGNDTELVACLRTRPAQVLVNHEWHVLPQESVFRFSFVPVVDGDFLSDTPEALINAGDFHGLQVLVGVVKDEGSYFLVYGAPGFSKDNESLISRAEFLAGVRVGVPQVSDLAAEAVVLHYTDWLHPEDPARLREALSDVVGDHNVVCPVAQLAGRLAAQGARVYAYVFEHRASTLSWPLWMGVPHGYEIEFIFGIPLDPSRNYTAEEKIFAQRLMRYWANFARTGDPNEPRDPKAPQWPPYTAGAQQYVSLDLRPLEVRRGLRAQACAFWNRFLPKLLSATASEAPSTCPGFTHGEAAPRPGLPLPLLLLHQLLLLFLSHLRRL

## COP(=S)(OC)Oc1ccc([N+](=O)[O-])c(C)c1 [fenitrothion]
0.042 mg/kg BW single oral, 3 volunteers, ref Nosáľ and Hladká. 1968
  Reported erythrocyte AChE activity/inhibition: No significant
0.06 mg/kg BW single oral, 3 male volunteers, ref Meaklim et al. 2003
  Reported concomitant effects (signs and symptoms): No significant symptoms
0.083 mg/kg BW single oral, 9 volunteers, ref Nosáľ and Hladká. 1968
  Reported erythrocyte AChE activity/inhibition: No significant
0.09 mg/kg BW, first dose of repeated exposure study, 8 male and 4 female volunteers, ref Meaklim et al. 2003
  Reported erythrocyte AChE activity/inhibition: No significant erythrocyte AChE
0.17 mg/kg BW single oral, 5 volunteers, ref Nosáľ and Hladká. 1968
  Reported erythrocyte AChE activity/inhibition: No significant erythrocyte AChE
0.18 mg/kg BW single oral, 3 male volunteers, ref Meaklim et al. 2003
  Reported concomitant effects (signs and symptoms): No significant symptoms
0.18 mg/kg BW, first dose of repeated exposure study, 8 male and 4 female volunteers, ref Meaklim et al. 2003
  Reported erythrocyte AChE activity/inhibition: No significant erythrocyte AChE
0.25 mg/kg BW single oral, 2 volunteers, ref Nosáľ and Hladká. 1968
  Reported erythrocyte AChE activity/inhibition: No significant erythrocyte AChE
0.33 mg/kg BW single oral, 5 volunteers, ref Nosáľ and Hladká. 1968
  Reported erythrocyte AChE activity/inhibition: No significant erythrocyte AChE
0.36 mg/kg BW single oral, 3 male volunteers, ref Meaklim et al. 2003
  Reported concomitant effects (signs and symptoms): No symptoms or adverse effects
36 mg/kg BW (2.5 g) acute oral, person, ref Kojima et al. 1989
  Reported concomitant effects (signs and symptoms): Toxic symptoms occurred
71 mg/kg BW (5 g) acute oral, person, ref Yoshida and Kuroki. 2010 (original data of Koyama et al. 2006)
  Reported concomitant effects (signs and symptoms): Toxic symptoms occurred
143 mg/kg BW (10 g) acute oral, person, ref Yoshida and Kuroki. 2010 (original data of Koyama et al. 2006)
  Reported concomitant effects (signs and symptoms): Toxic symptoms occurred
214 mg/kg BW (15 g) acute oral, person five, ref Yoshida and Kuroki. 2010 (original data of Koyama et al. 2006)
  Reported concomitant effects (signs and symptoms): Toxic symptoms occurred
214 mg/kg BW (15 g) acute oral, person three, ref Yoshida and Kuroki. 2010 (original data of Koyama et al. 2006)
  Reported concomitant effects (signs and symptoms): Toxic symptoms occurred
286 mg/kg BW (20 g) acute oral, person, ref Sakamoto et al. 1984
  Reported concomitant effects (signs and symptoms): Toxic symptoms occurred
357 mg/kg BW (25 g) acute oral, person eleven, ref Yoshida and Kuroki. 2010 (original data of Koyama et al. 2006)
  Reported concomitant effects (signs and symptoms): Toxic symptoms occurred
357 mg/kg BW (25 g) acute oral, person twelve, ref Yoshida and Kuroki. 2010 (original data of Koyama et al. 2006)
  Reported concomitant effects (signs and symptoms): Toxic symptoms occurred
357 mg/kg BW (25 g) acute oral, person, ref Martinez-Chuecos et al. 1992
  Reported concomitant effects (signs and symptoms): Toxic symptoms occurred
429 mg/kg BW (30 g) acute oral, person, ref Yoshida et al. 1987
  Reported concomitant effects (signs and symptoms): Toxic symptoms occurred
429 mg/kg BW (30.0 ± 19.7 g) acute oral, 4 males and 6 females, ref Inoue et al. 2008
  Reported concomitant effects (signs and symptoms): Toxic symptoms occurred
500 mg/kg BW (35 g) acute oral, person fourteen, ref Yoshida and Kuroki. 2010 (original data of Koyama et al. 2006)
  Reported concomitant effects (signs and symptoms): Toxic symptoms occurred
500 mg/kg BW (35 g) acute oral, person two, ref Yoshida and Kuroki. 2010 (original data of Koyama et al. 2006)
  Reported concomitant effects (signs and symptoms): Toxic symptoms occurred
536 mg/kg BW (37.5 g) acute oral, person, ref Yoshida and Kuroki. 2010 (original data of Koyama et al. 2006)
  Reported concomitant effects (signs and symptoms): Toxic symptoms occurred
571 mg/kg BW (40 g) acute oral, person, ref Park and Choi. 2017
  Reported concomitant effects (signs and symptoms): Toxic symptoms occurred
714 mg/kg BW (50 g) acute oral, person eight, ref Yoshida and Kuroki. 2010 (original data of Koyama et al. 2006)
  Reported concomitant effects (signs and symptoms): Toxic symptoms occurred
714 mg/kg BW (50 g) acute oral, person four, ref Yoshida and Kuroki. 2010 (original data of Koyama et al. 2006)
  Reported concomitant effects (signs and symptoms): Toxic symptoms occurred
714 mg/kg BW (50 g) acute oral, person nine, ref Yoshida and Kuroki. 2010 (original data of Koyama et al. 2006)
  Reported concomitant effects (signs and symptoms): Toxic symptoms occurred
714 mg/kg BW (50 g) acute oral, person one, ref Yoshida and Kuroki. 2010 (original data of Koyama et al. 2006)
  Reported concomitant effects (signs and symptoms): Toxic symptoms occurred
714 mg/kg BW (50 g) acute oral, person ten, ref Yoshida and Kuroki. 2010 (original data of Koyama et al. 2006)
  Reported concomitant effects (signs and symptoms): Toxic symptoms occurred
714 mg/kg BW (50 g) acute oral, person thirteen, ref Yoshida and Kuroki. 2010 (original data of Koyama et al. 2006)
  Reported concomitant effects (signs and symptoms): Toxic symptoms occurred
[1]
  Reported concomitant effects (signs and symptoms): toxic symptoms occurred
  Reported erythrocyte AChE activity/inhibition: Significantly decreased
1786 mg/kg BW (125.0 ± 35.4 g) acute oral, one male and one female, ref Inoue et al. 2008
  Reported concomitant effects (signs and symptoms): Toxic symptoms occurred
Single oral 0.042 mg/kg BW, 0.042 mg/kg
  reported or expected adverse health outcome: negative
Single oral 0.042 mg/kg BW, listed as Fenitrothion, 0.042 mg/kg
  reported or expected adverse health outcome: No
Single oral 0.06 mg/kg BW, 0.06 mg/kg
  reported or expected adverse health outcome: negative
Single oral 0.06 mg/kg BW, listed as Fenitrothion, 0.06 mg/kg
  reported or expected adverse health outcome: No
Single oral 0.083 mg/kg BW, 0.083 mg/kg
  reported or expected adverse health outcome: negative
Single oral 0.083 mg/kg BW, listed as Fenitrothion, 0.083 mg/kg
  reported or expected adverse health outcome: No
Single oral 0.09 mg/kg BW, 0.09 mg/kg
  reported or expected adverse health outcome: negative
Single oral 0.09 mg/kg BW, listed as Fenitrothion, 0.09 mg/kg
  reported or expected adverse health outcome: No
Single oral 0.17 mg/kg BW, 0.17 mg/kg
  reported or expected adverse health outcome: negative
Single oral 0.17 mg/kg BW, listed as Fenitrothion, 0.17 mg/kg
  reported or expected adverse health outcome: No
Single oral 0.18 mg/kg BW, 0.18 mg/kg
  reported or expected adverse health outcome: negative
Single oral 0.18 mg/kg BW, listed as Fenitrothion, 0.18 mg/kg
  reported or expected adverse health outcome: No
Single oral 0.25 mg/kg BW, 0.25 mg/kg
  reported or expected adverse health outcome: negative
Single oral 0.25 mg/kg BW, listed as Fenitrothion, 0.25 mg/kg
  reported or expected adverse health outcome: No
Single oral 0.33 mg/kg BW, 0.33 mg/kg
  reported or expected adverse health outcome: negative
Single oral 0.33 mg/kg BW, listed as Fenitrothion, 0.33 mg/kg
  reported or expected adverse health outcome: No
Single oral 0.36 mg/kg BW, 0.36 mg/kg
  reported or expected adverse health outcome: negative
Single oral 0.36 mg/kg BW, listed as Fenitrothion, 0.36 mg/kg
  reported or expected adverse health outcome: No
Single oral 36 mg/kg BW, 36 mg/kg
  reported or expected adverse health outcome: positive
Single oral 36 mg/kg BW, listed as Fenitrothion, 36 mg/kg
  reported or expected adverse health outcome: Yes
Single oral 71 mg/kg BW, 71 mg/kg
  reported or expected adverse health outcome: positive
Single oral 71 mg/kg BW, listed as Fenitrothion, 71 mg/kg
  reported or expected adverse health outcome: Yes
Single oral 143 mg/kg BW, 143 mg/kg
  reported or expected adverse health outcome: positive
